Reference: patent US11370847B2, “Single domain antibodies directed against intracellular antigens” (Singh Biotechnology, LLC, priority 2014, dated 2022)
Several values for one entry are separate records, joined by “and”; a condition that tells them apart may be missing. Equal values may be shown once. Read-outs that look alike come from different tables or passages of the source.

How the values were obtained:
SJSA-1 xenograft = assay: SJSA-1 Bone Osteosarcoma subcutaneous xenograft model
endogenous STAT3 = assay: Immunoprecipitation from cell lines with constitutively activated STAT3; format: binding, human (PANC-1 and DU145) and murine (4T1)
Method: Commercial HeLa cells were also treated with interferon gamma (INFΓ) in order to induce phosphorylated STAT3. The PC-3 STAT3 null cell line was used as a negative control.
The cells were grown to 50% to 70% confluence, then disrupted in freshly prepared ice-cold lysis buffer as described above for 45 minutes on ice. Lysates were then centrifuged, the supernatant collected, and protein concentration was determined as described above. […] Beads were then washed. Following the final wash, 60 μl of lysis buffer was added, and the resulting supernatant was subject to Western Blot analysis as described in Example 2.

STAT3 = STAT3 reporter GloResponse SIE-luc2P/HEK293 assay, IL-6 induction; format: cell-based; details: for decrease in RLU: highest concentration (55.8 μg/mL);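 as to all read-outs here: SIE-luc2P/HEK293 reporter cells stimulated with IL-6 at 40 ng/mL (EC80) after pretreatment, luciferase luminescence (RLU) read the following day, triplicate wells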
PANC-1 cells [1] = assay: Internalization of sdAb, anti-His staining, PANC-1; format: cell-based; details: 18 hours after sdAb addition
Method: The next day, the chambers were rinsed with fresh media and STAT3 VHH13 (SEQ ID NO:3) sdAb (diluted 1:10 in media) or TNF-α VHH66 (SEQ ID NO:45) sdAb was added to the chamber. An anti-HIV-1 Reverse Transcriptase (RT) sdAb was used as a negative control.
The slides were incubated for 18 hours after sdAb addition. The chambers were briefly rinsed with media and fixed in ice-cold methanol for 5-10 min. The chambers were then dried and stained with a fluorescent anti-His tag antibody (1:200) (Novus Biologicals, Littleton, Colo.) for 45 min at room temperature. The slides were rinsed in PBS for 5 minutes and mounted.

MDA-MB-231 cells = assay: MTT proliferation assay, MDA-MB-231; format: cell-based, human; details: MDA-MB-231; for Absorbance: single experiments;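 as to all read-outs here: proliferation of cultured human cancer cells read by MTT, with treated groups compared against a vehicle control group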
HT1080 cells = assay: MTT proliferation assay, HT1080; format: cell-based, human; details: HT1080, 72 hr
PANC-1 cells [2] = assay: MTT proliferation assay, PANC-1; details: SBT-100 100 μg/ml alone, experiment with Gemcitabine Hydrochloride (Biovision #1759), 72 hours
DU145 xenograft = assay: DU145 prostate cancer xenograft model; details: SBT-100 5 mg/kg bw i.p. BID×14
PANC-1 xenograft = details: for Tumor Measurements (mm^3), group Mean / Individual Tumor Measurements (mm^3): Group 2: 500 μg/kg bw IP QD×14; for Individual Tumor Measurements (mm^3): single animals, listed as anti-STAT3 bacterial VHH13
VEGF-A = VEGF-A ELISA in ARPE-19 retinal cells; format: cell-based, human; details: Experiment 2; for pg VEGF-A per μg protein: single wells
[3] = SBT-100 5.0 mg/kg BID 14 days IP, Doxorubicin 7.0 mg/kg days 1, 8 and 14 IP
[4] = study day 9 post implant, IP, SBT-100 5.0 mg/kg BIDx14 and/or Doxorubicin 7.0 mg/kg days 1, 8, 14
[5] = study day 13 post implant, IP, SBT-100 5.0 mg/kg BIDx14 and/or Doxorubicin 7.0 mg/kg days 1, 8, 14
[6] = study day 16 post implant, IP, SBT-100 5.0 mg/kg BIDx14 and/or Doxorubicin 7.0 mg/kg days 1, 8, 14
[7] = study day 20 post implant, IP, SBT-100 5.0 mg/kg BIDx14 and/or Doxorubicin 7.0 mg/kg days 1, 8, 14
[8] = study day 21 post implant, IP, SBT-100 5.0 mg/kg BIDx14 and/or Doxorubicin 7.0 mg/kg days 1, 8, 14
[9] = study day 23 post implant, IP, SBT-100 5.0 mg/kg BIDx14 and/or Doxorubicin 7.0 mg/kg days 1, 8, 14
[10] = study day 27 post implant, IP, SBT-100 5.0 mg/kg BIDx14 and/or Doxorubicin 7.0 mg/kg days 1, 8, 14

## anti-STAT3 VHH13: anti-STAT3 single-domain antibody, SEQ ID NO:3; bacterially produced, referred to as SBT-100
SJSA-1 xenograft; [3]
  % T/C: 69.91%
  mean tumor growth inhibition at the end of the study: 25.23%
  mean tumor size (±S.E.) at termination: 1055.68±307.10
  mean tumor size (±SE) at the last day of dosing: 334.52±114.62
SJSA-1 xenograft; SJSA-1 xenograft
  mean tumor size compared to control: non-significant decrease in mean tumor size
SJSA-1 xenograft; control 8.22
  tumor doubling time: 8.84
SJSA-1 xenograft; [4]
  % Inh Mean: 21.06%
  % Inh Med: 11.92%
  Mean Abs (tumor measurement): 31.31 mm^3
  Median Abs (tumor measurement): 19.98 mm^3
  Tumor Measurements, single animals: 15.75 mm^3 and 19.98 mm^3 and 0.00 mm^3 and 69.47 mm^3 and 10.46 mm^3 and 79.76 mm^3 and 23.77 mm^3
SJSA-1 xenograft; [5]
  % Inh Mean: −45.34%
  % Inh Med: −44.59%
  Mean Abs (tumor measurement): 115.14 mm^3
  Median Abs (tumor measurement): 85.60 mm^3
  Tumor Measurements, single animals: 106.64 mm^3 and 28.26 mm^3 and 0.00 mm^3 and 126.45 mm^3 and 38.25 mm^3 and 420.78 mm^3 and 85.60 mm^3
SJSA-1 xenograft; [6]
  % Inh Mean: 12.69%
  % Inh Med: 14.60%
  % T/C: 71.23%
  Mean Abs (tumor measurement): 151.57 mm^3
  Median Abs (tumor measurement): 139.83 mm^3
  Tumor Measurements, single animals: 139.83 mm^3 and 36.05 mm^3 and 11.02 mm^3 and 200.95 mm^3 and 187.82 mm^3 and 358.90 mm^3 and 126.46 mm^3
SJSA-1 xenograft; [7]
  % Inh Mean: 18.11%
  % Inh Med: 24.54%
  % T/C: 73.26%
  Mean Abs (tumor measurement): 252.90 mm^3
  Median Abs (tumor measurement): 191.62 mm^3
  Tumor Measurements, single animals: 191.62 mm^3 and 70.70 mm^3 and 59.97 mm^3 and 616.53 mm^3 and 180.38 mm^3 and 450.45 mm^3 and 200.68 mm^3
SJSA-1 xenograft; [8]
  % Inh Mean: 16.23%
  % Inh Med: 35.42%
  % T/C: 76.22%
  Mean Abs (tumor measurement): 334.52 mm^3
  Median Abs (tumor measurement): 198.86 mm^3
  Tumor Measurements, single animals: 271.05 mm^3 and 115.97 mm^3 and 96.53 mm^3 and 901.18 mm^3 and 155.51 mm^3 and 602.51 mm^3 and 198.86 mm^3
SJSA-1 xenograft; [9]
  % Inh Mean: 8.48%
  % Inh Med: 33.12%
  % T/C: 79.47%
  Mean Abs (tumor measurement): 477.43 mm^3
  Median Abs (tumor measurement): 308.49 mm^3
  Tumor Measurements, single animals: 308.49 mm^3 and 201.00 mm^3 and 185.39 mm^3 and 1,359.67 mm^3 and 197.83 mm^3 and 756.79 mm^3 and 332.80 mm^3
SJSA-1 xenograft; [10]
  % Inh Mean: 25.23%
  % Inh Med: 37.90%
  % T/C: 69.91%
  Mean Abs (tumor measurement): 1,055.68 mm^3
  Median Abs (tumor measurement): 707.34 mm^3
  Tumor Measurements, single animals: 707.34 mm^3 and 474.71 mm^3 and 380.72 mm^3 and 2,500.29 mm^3 and 351.21 mm^3 and 1,699.89 mm^3 and 1,275.63 mm^3
Endogenous STAT3; HeLa lysate (interferon gamma treated)
  binding to Phospho-STAT3: bound
Endogenous STAT3; PANC-1, DU145 and 4T1 lysates
  immunoprecipitation of endogenous STAT3: immunoprecipitated
Endogenous STAT3; PC-3 (negative control)
  immunoprecipitation in STAT3 null cell line: No bands
STAT3; 24 and 48 hours treatment, VHH13 and VHH69 at highest concentration, VHH14 at both concentrations
  effect on IL-6 induction of the STAT3 reporter: Inhibition of IL-6
STAT3; 24 hours treatment prior to IL-6 induction
  decrease in RLU: greater than 10 fold
STAT3; 48 hours treatment prior to IL-6 induction
  decrease in RLU: greater than 1,000 fold
PANC-1 cells [1]
  staining with fluorescent anti-His tag antibody: positive cytoplasmic staining
MDA-MB-231 cells; 50 μg
  Average Absorbance: 0.82
MDA-MB-231 cells; 50 μg (50.0 μg/ml), listed as Anti-STAT3 Bacterial VHH13
  Average % Inhibition: 32.6%
MDA-MB-231 cells; 50 μg, listed as Anti-STAT3 Bacterial VHH13
  Absorbance: 0.82 and 0.99 and 0.64
MDA-MB-231 cells; 100 μg
  Average Absorbance: 0.11
MDA-MB-231 cells; 100 μg, listed as Anti-STAT3 Bacterial VHH13
  Absorbance: 0.07 and 0.12 and 0.14
HT1080 cells
  IC50: IC50 = 33 μg/ml
PANC-1 cells [2]
  Abs: 0.381
DU145 xenograft
  % treatment/control: 74.8%
  mean tumor size (±S.E.) at termination (day 28): 601.83±131.51
  mean tumor size (±SE) at last day of dosing (Day 14): 364.14±51.64
DU145 xenograft; control 14.57 days
  tumor doubling time: 18.19 days
DU145 xenograft; p=0.29
  mean tumor growth inhibition at the end of the study: 26.6%
PANC-1 xenograft; 500 μg/kg bw IP QD×14
  growth inhibition: no significant growth inhibition
  mean tumor size (±SE) on day 14 of dosing: 318.74 ± 29.76
PANC-1 xenograft; 500 μg/kg bw IP QD×14, control […] days
  tumor doubling time: 23.02 days
PANC-1 xenograft; 2/19
  Tumor Measurements (mm^3), group Mean: 110.58 mm^3
  Individual Tumor Measurements (mm^3): 96.31 mm^3 and 89.24 mm^3 and 80.62 mm^3 and 108.03 mm^3 and 77.66 mm^3 and 129.68 mm^3 and 108.99 mm^3 and 123.27 mm^3 and 144.53 mm^3 and 120.96 mm^3 and 112.69 mm^3 and 134.95 mm^3
PANC-1 xenograft; 2/24
  Tumor Measurements (mm^3), group Mean: 149.71 mm^3
  Individual Tumor Measurements (mm^3): 193.71 mm^3 and 90.03 mm^3 and 148.97 mm^3 and 144.14 mm^3 and 116.21 mm^3 and 143.20 mm^3 and 182.30 mm^3 and 171.03 mm^3 and 136.03 mm^3 and 136.48 mm^3 and 144.76 mm^3 and 189.64 mm^3
PANC-1 xenograft; 2/27
  Tumor Measurements (mm^3), group Mean: 222.47 mm^3
  Individual Tumor Measurements (mm^3): 275.06 mm^3 and 112.43 mm^3 and 196.38 mm^3 and 234.46 mm^3 and 313.19 mm^3 and 290.67 mm^3 and 239.00 mm^3 and 223.34 mm^3 and 198.47 mm^3 and 226.43 mm^3 and 167.12 mm^3 and 193.14 mm^3
PANC-1 xenograft; 3/2
  Tumor Measurements (mm^3), group Mean: 242.11 mm^3
  Individual Tumor Measurements (mm^3): 317.53 mm^3 and 125.51 mm^3 and 187.24 mm^3 and 240.39 mm^3 and 290.38 mm^3 and 224.92 mm^3 and 254.64 mm^3 and 226.88 mm^3 and 226.04 mm^3 and 338.06 mm^3 and 225.70 mm^3 and 248.01 mm^3
PANC-1 xenograft; 3/6
  Tumor Measurements (mm^3), group Mean: 318.74 mm^3
  Individual Tumor Measurements (mm^3): 395.37 mm^3 and 189.63 mm^3 and 299.84 mm^3 and 288.75 mm^3 and 411.66 mm^3 and 261.44 mm^3 and 342.19 mm^3 and 248.69 mm^3 and 247.97 mm^3 and 564.71 mm^3 and 223.06 mm^3 and 351.63 mm^3
PANC-1 xenograft; 3/10
  Tumor Measurements (mm^3), group Mean: 408.74 mm^3
  Individual Tumor Measurements (mm^3): 540.66 mm^3 and 235.08 mm^3 and 530.46 mm^3 and 421.61 mm^3 and 197.67 mm^3 and 343.04 mm^3 and 464.00 mm^3 and 324.30 mm^3 and 273.58 mm^3 and 883.81 mm^3 and 326.19 mm^3 and 364.44 mm^3
PANC-1 xenograft; SBT-100 5 mg/kg bw i.p. BID×14
  % treatment/control: 52.79%
  mean tumor size (±S.E.) at termination (day 28): 203.02±30.34
  mean tumor size (±SE) at last day of dosing (Day 14): 159.03±28.01
PANC-1 xenograft; SBT-100 5 mg/kg bw i.p. BID×14, control 18.51 days
  tumor doubling time: 35.70 days
PANC-1 xenograft; SBT-100 5 mg/kg bw i.p. BID×14, p=0.35
  mean tumor growth inhibition at the end of the study: 41.78%
VEGF-A; ARPE-19, 0.1 μg/well, 12 Hr
  pg VEGF-A per μg protein: 2.4 pg per μg protein
VEGF-A; ARPE-19, 10 μg/well, 24 Hr
  pg VEGF-A per μg protein: 4.4 pg per μg protein
VEGF-A; ARPE-19, 100 μg/mL, 12 hour treatment
  decrease in VEGF-A: 20.1%
VEGF-A; ARPE-19, 100 μg/mL, 24 hour treatment
  decrease in VEGF-A: 7.5%
VEGF-A; ARPE-19, 100 μg/mL, 48 hours
  pg VEGF-A/μg protein as % of the negative control: 11%
VEGF-A; lower concentrations (10, 1 or 0.1 μg/ml)
  decrease in VEGF-A: not seen
